# Experimental data published in paper PMC9596850, “Tonsillar Microbiome‐Derived Lantibiotics Induce Structural Changes of IL‐6 and IL‐21 Receptors and Modulate Host Immunity” (Advanced Science, 2022).
# Peptide text beside a SMILES is read from it.
# Experiments:
# [1] = system: collagen‐induced arthritis (CIA) model mice; experiment: Collagen‐induced arthritis (CIA) mice, prophylactic regimen; format: in vivo, DBA/1 mice; conditions: prophylactic administration in CIA mice
# Protocol: Male DBA/1 mice (6–8 weeks old) were purchased from Huafukang Co. Ltd. (Beijing, China) and fed under specific pathogen‐free conditions. All experiments were carried out in accordance with guidelines prescribed by the Animal Care and Use Committee of Peking University People's Hospital (2019PHE047). CIA induction was established by following a previously published protocol.^[ [41] ^] Briefly, DBA/1 mice were immunized intradermally at the base of the tail with 200 µg of bovine type II collagen (CII, Chondrex) emulsified in complete Freund's adjuvant (Sigma‐Aldrich, St Louis, MO, USA) in equal volumes. Three weeks later, a booster was delivered using 100 µg CII emulsified in Freund's incomplete adjuvant. Mice were monitored for signs of arthritis after the booster immunization. Clinical score was assessed by using the following system as detailed previously:^[ [41] ^] […]
# The paws from each mouse were collected and fixed in 4% paraformaldehyde (PFA) for 48 h, then scanned using a Micro‐CT scanner (Quantum FX, Caliper, USA). […] A microscopic assessment of sagittal sections was performed and histopathological changes were scored based on the following previously reported parameters:^[ [42] ^] […]
# murine IL‐21R = molecular target: T1, murine IL‐21R (Mus musculus, UniProt Q9JHX3); experiment: SPR binding to immobilized murine IL‐21R
# T1 construct: Fc region of human IgG1 (C); purchased Sino Biological
# Protocol: The binding affinities of salivaricins to IL‐6Rα or IL‐21R were assayed using the Biacore 8K instrument (GE Healthcare). Murine IL‐6Rα (20 nM, abcam) or IL‐21R ([…], Sino Biological) were immobilized on a CM5 sensor chip using standard amine‐coupling at 25 °C with PBS‐P running buffer (GE Healthcare), as described previously.^[ [39] ^] […] Regeneration was achieved by extended washing with NaOH (5 mm) after each sample injection. The dissociation constants (KD) of salivaricins were obtained by fitting the data sets to steady‐state affinity model using Biacore 8K Evaluation Software.
# [2] = Table S4, immobilized mIL-21R, Steady state affinity model
# T1 sequence (Q9JHX3 20-529): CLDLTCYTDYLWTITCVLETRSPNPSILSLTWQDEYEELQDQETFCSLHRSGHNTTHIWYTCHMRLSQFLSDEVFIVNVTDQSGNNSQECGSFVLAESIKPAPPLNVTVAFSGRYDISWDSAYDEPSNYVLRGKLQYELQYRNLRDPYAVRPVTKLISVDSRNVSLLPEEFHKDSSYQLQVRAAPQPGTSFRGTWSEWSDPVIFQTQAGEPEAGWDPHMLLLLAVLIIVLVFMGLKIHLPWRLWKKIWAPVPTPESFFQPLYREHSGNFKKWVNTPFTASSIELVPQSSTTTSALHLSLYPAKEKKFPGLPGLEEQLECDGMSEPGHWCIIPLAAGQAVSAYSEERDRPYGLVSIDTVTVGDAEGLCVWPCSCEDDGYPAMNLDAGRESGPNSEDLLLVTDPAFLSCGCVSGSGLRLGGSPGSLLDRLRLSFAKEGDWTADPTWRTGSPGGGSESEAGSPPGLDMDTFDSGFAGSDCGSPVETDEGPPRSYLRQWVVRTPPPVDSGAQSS
SMILES,body weight [1],"Kd (murine IL‐21R; Figure 5D legend, mutant experiment, analyte 12.5–800 µM, immobilized murine IL‐21R 20 nM) [µM]",Kd (murine IL‐21R; [2]) [µM],"Kd (murine IL‐21R; Figure S8D, salivaricin B mutant experiment, analyte 12.5-800, immobilized murine IL-21R 20 nM) [µM]"
CC[C@H](C)[C@H](NC(=O)[C@@H](NC(=O)[C@H](C)NC(=O)[C@H](Cc1ccccc1)NC(=O)[C@H](Cc1c[nH]c2ccccc12)NC(=O)CNC(=O)[C@@H](NC(=O)CNC(=O)[C@H](CCCNC(=N)N)NC(=O)[C@@H](N)CCCCN)[C@@H](C)O)[C@@H](C)O)C(=O)N[C@H](C(=O)N[C@@H](CC(=O)O)C(=O)N[C@@H](CC(=O)O)C(=O)N[C@@H](CS)C(=O)N1CCC[C@H]1C(=O)N[C@@H](CC(N)=O)C(=O)N[C@@H](CO)C(=O)N[C@H](C(=O)N[C@@H](Cc1ccccc1)C(=O)N[C@H](C(=O)N[C@@H](CS)C(=O)N[C@@H](CS)C(=O)O)C(C)C)C(C)C)[C@@H](C)O [salivaricin A2] (H-KRGTGWFATITDDCPNSVFVCC-OH),without affecting body weight,29.4,12.6,
CC[C@H](C)[C@H](NC(=O)[C@@H](NC(=O)CNC(=O)CNC(=O)CN)C(C)C)C(=O)N[C@@H](CCC(N)=O)C(=O)N[C@H](C(=O)N[C@H](C(=O)N[C@@H](CO)C(=O)N[C@@H](Cc1c[nH]cn1)C(=O)N[C@@H](CCC(=O)O)C(=O)N[C@@H](CS)C(=O)N[C@@H](CCCNC(=N)N)C(=O)N[C@@H](CCSC)C(=O)N[C@@H](CC(N)=O)C(=O)N[C@@H](CO)C(=O)N[C@@H](Cc1c[nH]c2ccccc12)C(=O)N[C@@H](CCC(N)=O)C(=O)N[C@@H](Cc1ccccc1)C(=O)N[C@@H](CC(C)C)C(=O)N[C@@H](Cc1ccccc1)C(=O)N[C@H](C(=O)N[C@@H](CS)C(=O)N[C@@H](CS)C(=O)N[C@@H](CO)C(=O)O)[C@@H](C)O)[C@@H](C)CC)[C@@H](C)O [salivaricin B] (H-GGGVIQTISHECRMNSWQFLFTCCS-OH),without affecting body weight,,10.1,12.6
